Assay results published in patent US7524504B1, “Anti-glycation hydrolysate of G. lucidum” (priority 2008, dated 2009).

System: AGE-related proteins
Assay: Inhibition of AGE-related proteins (HSA + glucose incubation, fluorescence)
Type: biochemical, human
Conditions: 7 days of incubation
Procedure: Inhibition of AGE-related proteins was assayed according to the following method. First, a reaction mixture was prepared by mixing 20 mg/ml of human serum albumin (HSA) in 200 mM phosphate buffer (pH 7.4) with 500 mM [90.08 mg/ml] of glucose and 0.02% [0.2 mg/ml] sodium azide (as a preservative). The reaction mixture was incubated at 37° C. for three weeks, during which time AGE-related proteins were produced via a Maillard-type reaction. After 7, 14 and 21 days, aliquots of the reaction mixture were passed through a molecular weight sieve (PD-10 column) and equilibrated in water to remove free glucose and Schiff base. […] The latter reaction generates fluorescent by-products with fluorescence proportional to the amount of accumulated AGE-related proteins as determined with a microplate fluorescence reader (Bio-Tek FL600) at an excitation wavelength of 360 nm and an emission wavelength of 440 nm.
To aliquots of the initial reaction mixture capable of producing AGE-related endproducts as described above were added varying concentrations of extract of G. lucidum according to the present invention (i.e., hydrolyzed with acid protease of R. miehei and thereafter rendered substantially devoid of acid protease activity). […] Fluorescence was measured after 7 days of incubation in the reaction mixture as set out above.

N=C(N)NN [aminoguanidine, Aminoguanidine]
Fluorescence (at 440 nm), normalized to 100 (100 mM + Positive Control): 73 | Fluorescence (at 440 nm), normalized to 100 (200 mM + Positive Control): 45
